{"source": "patent US6921665B2", "about": "“Selective antibody targeting of undifferentiated stem cells” (Roslin Institute (Edinburgh), priority 2001, dated 2005)", "key": {"[1]": {"test_system": "tumor lines 143B, 293, HT1080, Bxpc-3', DAOY and NIH3T3", "assay": "Ganciclovir treatment in vitro of tk/+ tumor lines carrying hTERT promoter/tk constructs", "format": "cell-based", "conditions": "cells carrying pGRN266, pGRN267 or pGRN268", "procedure": "(§1) The ability of the hTERT promoter to specifically drive the expression of the thymidine kinase (tk) gene in tumor cells was tested using a variety of constructs: One construct, designated pGRN266, contains an EcoRI-FseI PCR fragment with the tk gene cloned into the EcoRI-FseI sites of pGRN263. pGRN263, containing approximately 2.5 kb of hTERT promoter sequence, is similar to pGRN150, but contains a neomycin gene as selection marker. pGRN267 contains an EcoRI-FseI PCR fragment with the tk gene cloned into the EcoRI-FseI sites of pGRN264. pGRN264, containing approximately 210 bp of hTERT promoter sequence, is similar to pGRN176, but contains a neomycin gene as selection marker. pGRN268 contains an EcoRI-XbaI PCR fragment with the tk gene cloned into the EcoRI-XbaI (unmethylated) sites of pGRN265. pGRN265, containing approximately 90 bp of hTERT promoter sequence, is similar to pGRN175, but contains a neomycin gene as selection marker.\n(§2) These hTERT promoter/tk constructs, pGRN266, pGRN267 and pGRN268, were re-introduced into mammalian cells and tk/+stable clones (and/or mass populations) were selected. […] Ganciclovir treatment had no effect on normal BJ cells."}, "hES lines H1 and H7": {"test_system": "hES lines H1 and H7", "assay": "Comparison of different hES lines, total cell number after pGRN376 plus GCV", "format": "cell-based, human", "conditions": "two hES lines", "procedure": "Undifferentiated hES of lines designated Hi and H7 cells were plated into 24 well plates (1 confluent well of a 6 well plate split into 24 wells of a 24 well plate). […] Four h after addition of the viral vector, medium was exchanged for new mEF-CM; some wells received medium supplemented with 20 μM GCV. Cells exposed to GCV were re-fed with mEF-CM containing GCV daily for 3 days. On day 4 after the initiation of GCV treatment, wells were harvested and analyzed by flow cytometry to assess changes in total cell number."}, "H9 cell line": {"test_system": "H9 cell line", "assay": "Sensitivity of the H9 line to GCV after TPAC vector treatment", "format": "cell-based, human", "conditions": "subsequent studies", "source_text": "Thus, different hES cell lines respond to the TPAC vector."}, "normal BJ cells": {"test_system": "normal BJ cells", "assay": "Ganciclovir treatment in vitro of normal cells carrying hTERT promoter/tk constructs", "format": "cell-based", "procedure": "as §1, §2"}, "[2]": {"test_system": "Undifferentiated H1 cells", "assay": "Cell viability (PI exclusion, cells in ES gate) of H1 hES cells after TPAC vector and/or GCV", "format": "cell-based, human", "conditions": "GCV alone", "procedure": "(§3) Undifferentiated H1 cells were plated into 24 well plates (1 confluent well of a 6 well plate split into 24 wells of a 24 well plate). After 48 h, some wells were infected with the TPAC vector at an MOI of 30 or 100. Four h after addition of the viral vector, medium was exchanged for new mouse embryonic fibroblast conditioned medium (mEF-CM); some wells received medium supplemented with 30 μM ganciclovir (GCV). Cells exposed to GCV were re-fed with mEF-CM containing 30 μM GCV daily for 4 days. On days 2,3, and 4 after the initiation of GCV treatment, wells were harvested and analyzed by flow cytometry to assess changes in 1) total cell number and 2) cell viability (measured by PI exclusion)."}, "[3]": {"test_system": "Undifferentiated H1 cells", "assay": "Total cell number of undifferentiated H1 hES cells by flow cytometry after TPAC vector and/or GCV", "format": "cell-based, human", "conditions": "GCV alone, 30 μM", "procedure": "as §3"}, "[4]": {"test_system": "TPAC vector treated hES cells", "assay": "Titration of GCV in TPAC vector treated hES cells", "format": "cell-based, human", "conditions": "pGRN376 MOI 30; GCV 5-40 μM tested; day 2", "procedure": "Undifferentiated Hi cells were plated into 24 well plates (1 confluent well of a 6 well plate split into 24 wells of a 24 well plate). After 48 h, some wells were infected with pGRN376 at an MOI of 30. Four h after addition of the viral vector, medium was exchanged for new mEF-CM; some wells received medium supplemented with 5, 10, 20, 30, or 40 μM ganciclovir (GCV). Cells exposed to GCV were re-fed with mEF-CM containing GCV daily for 2 days. On day 2 after the initiation of GCV treatment, wells were harvested and analyzed by flow cytometry to assess changes in total cell number, and cell viability (measured by PI exclusion)."}, "hTERT expression": {"test_system": "hTERT expression", "assay": "RT-PCR for hTERT expression after differentiation factors", "format": "cell-based, human", "conditions": "after exposure of hES cells to the factor", "procedure": "For radioactive relative quantification of individual gene products, QuantumRNA™ Alternate18S Internal Standard primers (Ambion, Austin Tex., USA) were employed according to the manufacturer's instructions. Briefly, the linear range of amplification of a particular primer pair was determined, then coamplified with the appropriate mixture of alternate18S primers:competimers to yield PCR products with coinciding linear ranges. Before addition of AmpliTaq™ (Roche) to PCR reactions, the enzyme was pre-incubated with the TaqStar™ antibody (ProMega) according to manufacturer's instructions. Radioactive PCR reactions were analyzed on 5% non-denaturing polyacrylamide gels, dried, and exposed to phosphoimage screens (Molecular Dynamics) for 1 hour. Screens were scanned with a Molecular Dynamics Storm 860 and band intensities were quantified using ImageQuant™ software. Results are expressed as the ratio of radioactivity incorporated into the hTERT or OCT-4 band, standardized to the radioactivity incorporated into the 18s band.\nPrimers and amplification conditions for particular markers are as follows. […]"}, "hES cells": {"test_system": "hES cells", "assay": "Neuron formation from hES cells with neurotrophin growth factors (β-tubulin positive cell count)", "format": "cell-based, human", "conditions": "7 days of differentiation", "procedure": "The effect of several members of the neurotrophin growth factor family was examined. hES cells were differentiated by harvesting with collagenase, dissociating, and reseeding onto poly-ornithine coated cover slips. The cells were plated into DMEM/F12+N2+10% FBS overnight. The following day, the serum was removed from the medium and replaced with 10 ng/mL human bFGF and the growth factor being tested. After 24 hours, bFGF was removed from the medium. These cultures were fed every other day. They were fixed after 7 days of differentiation and immunostained for analysis. The number of neurons was evaluated by counting cells positive for β-tubulin. Cultures maintained in the presence of 10 ng/mL brain derived neurotrophic factor (BDNF) formed approximately 3-fold more neurons than the control cultures. Cultures maintained in neurotrophin-3 (1 ng/mL) formed approximately 2-fold more neurons than control cultures."}}, "data": [{"molecule": "Nc1nc(O)c2ncn(COC(CO)CO)c2n1", "note": "[GCV, ganciclovir]", "values": [{"measurement": "effect of ganciclovir on tk/+ cells", "setting": "[1]", "value": "selective destruction of all tumor lines tested"}, {"measurement": "sensitivity to GCV after treatment with the TPAC vector", "setting": "hES lines H1 and H7", "value": "sensitive"}, {"measurement": "sensitivity to GCV after TPAC vector treatment", "setting": "H9 cell line", "value": "highly sensitive"}, {"measurement": "effect of ganciclovir", "setting": "normal BJ cells", "value": "no effect"}, {"measurement": "cells in ES gate", "setting": "[2]; day 2 (control 85%)", "value": 75, "unit": "%"}, {"measurement": "cells in ES gate", "setting": "[2]; day 3 (control 82%)", "value": 68, "unit": "%"}, {"measurement": "cells in ES gate", "setting": "[2]; day 4 (control 65%)", "value": 50, "unit": "%"}, {"measurement": "cells as percent of the control wells", "setting": "[3]; day 2", "value": "approximately 55%"}, {"measurement": "cells as percent of the control wells", "setting": "[3]; day 4", "value": 40, "unit": "%"}, {"measurement": "optimal GCV concentration", "setting": "[4]", "value": "~20", "unit": "µM"}]}, {"molecule": "C[S+](C)[O-]", "note": "[dimethyl sulfoxide]", "values": [{"measurement": "expression of hTERT", "setting": "hTERT expression", "value": "markedly decreased"}]}, {"molecule": "BDNF: brain derived neurotrophic factor, member of the neurotrophin growth factor family (protein, UniProt P23560 19-247, looked up) Neurotrophic factor BDNF …: APMKEANIRGQGGLAYPGVRTHGTLESVNGPKAGSRGLTSLADTFEHVIEELLDEDQKVRPNEENNKDADLYTSRVMLSSQVPLEPPLLFLLEEYKNYLDAANMSMRVRRHSDPARRGELSVCDSISEWVTAADKKTAVDMSGGTVTVLEKVPVSKGQLKQYFYETKCNPMGYTKEGCRGIDKRHWNSQCRTTQSYVRALTMDSKKRIGWRFIRIDTSCVCTLTIKRGR", "values": [{"measurement": "neurons formed relative to control cultures", "setting": "hES cells; 10 ng/mL", "value": "approximately 3 fold"}]}, {"molecule": "neurotrophin-3: member of the neurotrophin growth factor family (protein, UniProt P20783 139-257, looked up) Neurotrophin-3: YAEHKSHRGEYSVCDSESLWVTDKSSAIDIRGHQVTVLGEIKTGNSPVKQYFYETRCKEARPVKNGCRGIDDKHWNSQCKTSQTYVRALTSENNKLVGWRWIRIDTSCVCALSRKIGRT", "values": [{"measurement": "neurons formed relative to control cultures", "setting": "hES cells; 1 ng/mL", "value": "approximately 2 fold"}]}]}
